Measured values taken from the NIST ThermoML archive (doi:10.1021/je1009976).

Experiment: xn = mol fraction of the nth substance listed
Conditions: 101 kPa, Liquid; for viscosity: Capillary tube (Ostwald / Ubbelohde) method; for mass density: Pycnometric method

OCCOCCO [diethylene glycol] + O
Conditions | mass density, 303.15 K [kg/m3] | mass density, 308.15 K [kg/m3] | viscosity, 303.15 K [mPa·s] | viscosity, 308.15 K [mPa·s] | viscosity, 313.15 K [mPa·s]
x1 = 0.05006 | 1028.38 | 1026.09 | 1.556 | 1.37 | 1.222
x1 = 0.1016 | 1051.83 | 1048.94 | 2.582 | 2.242 | 1.962
x1 = 0.1512 | 1067.99 | 1065.34 | 3.83 | 3.286 | 2.833
x1 = 0.2012 | 1078.71 | 1075.25 | 5.261 | 4.448 | 3.806
x1 = 0.2477 | 1086.55 | 1082.95 | 6.653 | 5.591 | 4.739
x1 = 0.298 | 1092.27 | 1088.52 | 8.301 | 6.91 | 5.82
x1 = 0.3505 | 1096.22 | 1092.42 | 9.851 | 8.154 | 6.821
x1 = 0.4483 | 1101.17 | 1097.58 | 12.54 | 10.29 | 8.514
x1 = 0.5421 | 1103.74 | 1100.11 | 15.06 | 12.28 | 10.14
x1 = 0.6518 | 1106.25 | 1102.58 | 17.46 | 14.11 | 11.63
x1 = 0.7525 | 1107.78 | 1103.95 | 19.3 | 15.64 | 12.82
x1 = 0.7864 | 1107.94 | 1104.26 | 19.9 | 16.12 | 13.23
x1 = 0.8499 | 1108.55 | 1104.93 | 20.61 | 16.74 | 13.73
x1 = 0.9005 | 1108.84 | 1105.16 | 21.31 | 17.23 | 14.08
x1 = 0.9503 | 1109.66 | 1105.58 | 21.74 | 17.53 | 14.41
x1 = 1 | 1109.48 | 1105.72 | 22.16 | 17.93 | 14.71
